The results in this text go back to article PMC9217908, “Screening of commonly prescribed drugs for effects on the CAT1-mediated transport of L-arginine and arginine derivatives” (Amino Acids, 2022).

Common to all, as to assay: cell-based
Experiment [1] concerns the target T1, CAT1 (cationic amino acid transporter 1, CAT1/SLC7A1) (Homo sapiens, UniProt P30825).
T1 construct: full-length human transporter stably transfected in HEK cells (HEK-CAT1); net uptake against HEK-VC vector control cells
Set-up: species or system HEK-CAT1 (HEK293 stably transfected); Inhibition of net CAT1-mediated [3H]-L-arginine (100 uM) uptake, 5 min, scintillation counting, vector control subtracted. To be noted: HEK293, L-arginine 100 uM as substrate; for inhibition at 20 µM: read-out: % Inhibition of L-arginine uptake at 20 µM; for inhibition at 200 µM: read-out: % Inhibition of L-arginine uptake at 200 µM. The method, then:
(§1) Uptake and inhibition assays using HEK-CAT1 and HEK-VC cells and L-arginine, L-homoarginine, and ADMA as substrates were performed using the protocol described (Strobel et al. [2012]; Chafai et al. [2017]). Briefly, after incubation, the supernatant was replaced with transport buffer containing [^3H]- L-arginine for 5 min and 2.5 min for medium containing [^3H]-L-homoarginine or [^3H]-ADMA with or without the test compound. The reference drugs were screened at concentrations of 20 µM (Figs. 1A, 2A, and 3A) and 200 µM (Figs. 1B, 2B, and 3B). […] The net uptake was determined by subtracting the total amount taken up by control cells from the amount taken up by CAT1-expressing cells, which was expressed as a percentage of the amount taken up by the control. To determine the inhibitory effects of the drugs on CAT1-mediated transport of L-arginine, L-homoarginine, or ADMA, the control was measured in the absence of the potential inhibitor. The value for the percent inhibition was calculated as: Inhibition (%) = 100 – (V/V0 ^* 100), where V and V0 are the net uptake rates (uptake into HEK-CAT1 cells—uptake into HEK-VC cells) with and without test drugs, respectively. […] Each bar represents the effect of one compound on CAT1-mediated L-arginine (100 μM) uptake as percent inhibition. Data were obtained from at least two independent experiments performed in triplicate (n = 6–9) and each test data from the independent experiment were normalized to the respective control data to get the value of percent inhibition. Negative inhibition values indicate stimulated CAT1-mediated uptake. Data were analyzed using one-way ANOVA and Dunnett’s multiple comparison test with p < 0.05. Bars showing a statistically significant inhibition or transport stimulation are shaded in black

Experiment [2] deals with T1, CAT1 (cationic amino acid transporter 1, CAT1/SLC7A1). Details: species or system HEK-CAT1 (HEK293 stably transfected); Inhibition of net CAT1-mediated [3H]-L-homoarginine (1 uM) uptake, 2.5 min, scintillation counting, vector control subtracted. To be noted: HEK293, L-homoarginine 1 uM as substrate; for inhibition at 20 µM: read-out: % Inhibition of L-homoarginine uptake at 20 µM; for inhibition at 200 µM: read-out: % Inhibition of L-homoarginine uptake at 200 µM. As for the experimental part:
as §1, with “L-homoarginine (1” for “L-arginine (100”

For experiment [3] the target is unchanged. Set-up: species or system HEK-CAT1 (HEK293 stably transfected); Inhibition of net CAT1-mediated [3H]-ADMA (1 uM) uptake, 2.5 min, scintillation counting, vector control subtracted. To be noted: HEK293, ADMA 1 uM as substrate; for inhibition at 20 µM: read-out: % Inhibition of ADMA uptake at 20 µM; for inhibition at 200 µM: read-out: % Inhibition of ADMA uptake at 200 µM. As for the experimental part: as §1, with “ADMA (1” for “L-arginine (100”

Where two headings read alike, the source gives them in different places.

T1 sequence (P30825 whole entry): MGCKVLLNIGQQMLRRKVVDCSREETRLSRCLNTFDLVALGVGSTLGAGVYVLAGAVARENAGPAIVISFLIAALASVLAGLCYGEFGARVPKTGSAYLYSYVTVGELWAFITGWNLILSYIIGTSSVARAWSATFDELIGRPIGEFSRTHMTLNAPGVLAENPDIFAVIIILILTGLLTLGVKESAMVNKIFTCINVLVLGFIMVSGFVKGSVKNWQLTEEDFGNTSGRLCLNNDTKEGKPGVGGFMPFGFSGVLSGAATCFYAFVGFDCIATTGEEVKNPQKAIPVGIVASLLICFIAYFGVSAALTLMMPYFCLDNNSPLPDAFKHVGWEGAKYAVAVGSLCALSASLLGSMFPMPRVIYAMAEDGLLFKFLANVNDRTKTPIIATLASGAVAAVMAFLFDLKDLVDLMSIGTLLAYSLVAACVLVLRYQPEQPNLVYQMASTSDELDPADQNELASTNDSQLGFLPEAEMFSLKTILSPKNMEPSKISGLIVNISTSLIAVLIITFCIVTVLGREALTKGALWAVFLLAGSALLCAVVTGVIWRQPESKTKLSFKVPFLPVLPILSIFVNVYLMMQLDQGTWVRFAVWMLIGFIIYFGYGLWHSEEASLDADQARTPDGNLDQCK

In the case of `CCOc1nc2cccc(C(=O)O)c2n1Cc1ccc(-c2ccccc2-c2nnn[nH]2)cc1` [Candesartan], the inhibition at 20 µM is 14.5 ± 2.4% in experiment [1], 12.6 ± 2.2% in experiment [2] and -11.1 ± 0.9% in experiment [3]. Also, the values for the inhibition at 200 µM in experiment [1], in experiment [2] and in experiment [3] were -18.8 ± 2.4%, -12.6 ± 3.8% and 8.1 ± 3.1%, respectively.
For the molecule `CN(C)C(=O)C(CCN1CCC(O)(c2ccc(Cl)cc2)CC1)(c1ccccc1)c1ccccc1` [Loperamide], the figures for the inhibition at 20 µM in experiment [1], in experiment [2] and in experiment [3] were 16.9 ± 2.3%, 18.9 ± 0.2% and 17.6 ± 1.6%, respectively. Also, the inhibition at 200 µM was -3.6 ± 2.1% in experiment [1], -2.7 ± 3.9% in experiment [2] and 1.4 ± 2.1% in experiment [3].
Turning to `Cc1ccc(NC(=O)c2ccc(CN3CCN(C)CC3)cc2)cc1Nc1nccc(-c2cccnc2)n1` [Imatinib], the inhibition at 20 µM in experiment [1] is -8.2 ± 5.2%; in experiment [2], -24.9 ± 2.1%; in experiment [3], 11.2 ± 3.4%. Moreover, the inhibition at 200 µM is -42.8 ± 0.3% in experiment [1], -20.9 ± 1.1% in experiment [2] and 20.7 ± 14.1% in experiment [3].
As to `CN1CCOC(c2ccccc2)c2ccccc2C1` (stereo not shown) [Nefopam], the inhibition at 20 µM is -17.2 ± 10.5% in experiment [1], -8.3 ± 1.6% in experiment [2] and -3.2 ± 0.4% in experiment [3]. In addition, the inhibition at 200 µM in experiment [1] is -13.9 ± 5.1%; in experiment [2], -11.6 ± 3.2%; in experiment [3], 32.6 ± 3.7%.
Take `O=C(O[C@H]1C[C@H]2CC[C@@H](C1)[N+]21CCCC1)C(O)(c1ccccc1)c1ccccc1` [Trospium Chloride]: in experiment [1], the inhibition at 20 µM is 27.1 ± 2.1%. The inhibition at 200 µM was -23.8 ± 4.5% in experiment [1], -22.5 ± 2.3% in experiment [2] and 3 ± 9.1% in experiment [3].
As to `CCN(CC)CCNC(=O)c1cc(Cl)c(N)cc1OC` [Metoclopramide], the inhibition at 20 µM in experiment [1] was 7.5 ± 2.1%; in experiment [2] it was -6.3 ± 1.4%; in experiment [3], -3.2 ± 2.1%. Also, the figures for the inhibition at 200 µM in experiment [1], in experiment [2] and in experiment [3] were 2.5 ± 3.5%, 1.4 ± 3.2% and 4.2 ± 9.4%, respectively.
As to `Cc1nnc2n1-c1ccc(Cl)cc1C(c1ccccc1)=NC2` [Alprazolam], the inhibition at 20 µM is -3.9 ± 5.3% in experiment [1], -4.3 ± 5.2% in experiment [2] and 5.8 ± 3.8% in experiment [3]. Also, the inhibition at 200 µM in experiment [1] came out at 8 ± 2.7%; in experiment [2] it was 9.6 ± 1%; in experiment [3], 4.1 ± 9.5%.
Turning to `C[C@H]1O[C@@H](O[C@H]2[C@@H](O)C[C@H](O[C@H]3[C@@H](O)C[C@H](O[C@H]4CC[C@@]5(C)[C@H](CC[C@@H]6[C@@H]5CC[C@]5(C)[C@@H](C7=CC(=O)OC7)CC[C@]65O)C4)O[C@@H]3C)O[C@@H]2C)C[C@H](O)[C@@H]1O` [Digitoxin], the inhibition at 20 µM in experiment [1] is -7.2 ± 8.2%; in experiment [2], -7.2 ± 2.7%; in experiment [3], 4.3 ± 3.3%. Further, the values for the inhibition at 200 µM in experiment [1], in experiment [2] and in experiment [3] were -14.1 ± 4.2%, -12.6 ± 2.5% and 21.5 ± 2.5%, respectively.
In the case of `CC[C@H](C)C(=O)O[C@H]1C[C@H](O)C=C2C=C[C@H](C)[C@H](CC[C@@H](O)C[C@@H](O)CC(=O)O)[C@H]21` [Pravastatin], the inhibition at 20 µM is 0.2 ± 4.4% in experiment [1], -0.4 ± 3.8% in experiment [2] and -18.5 ± 3.3% in experiment [3]. The inhibition at 200 µM in experiment [1] is 4.1 ± 2.6%; in experiment [2], -10.1 ± 1.4%; in experiment [3] it was -4.4 ± 9.6%.
Regarding `CC(=O)Nc1ccc(O)cc1` [Acetaminophen], the figures for the inhibition at 20 µM in experiment [1], in experiment [2] and in experiment [3] were 6.6 ± 4.9%, 8.1 ± 4.7% and -14.7 ± 3.8%, respectively. The inhibition at 200 µM in experiment [1] was 2.4 ± 1.6%; in experiment [2], 4.4 ± 0.7%; in experiment [3], -3.9 ± 3.4%.
Consider `O=C(O)c1cc(-c2ccc(F)cc2F)ccc1O` [Diflunisal], for which the results for the inhibition at 20 µM in experiment [1], in experiment [2] and in experiment [3] were 26.6 ± 0.9%, 27.9 ± 1% and -42.4 ± 4.5%, respectively. Moreover, the inhibition at 200 µM in experiment [1] was -20.5 ± 3.3%; in experiment [2], -20 ± 0.5%; in experiment [3], 10 ± 2.1%.
As to `C[C@@H](O)[C@H]1C(=O)N2C(C(=O)O)=C(S[C@@H]3CN[C@H](C(=O)N(C)C)C3)[C@H](C)[C@H]12` [Meropenem], the values for the inhibition at 20 µM in experiment [1], in experiment [2] and in experiment [3] were -19.1 ± 9.3%, -19.3 ± 9.1% and 0.1 ± 3.2%, respectively. Also, the inhibition at 200 µM in experiment [1] is -13.4 ± 4.9%; in experiment [2], -13.6 ± 4.6%; in experiment [3] it was 12.1 ± 5.1%.
For the molecule `CN(C)C(=N)NC(=N)N` [Metformin], the inhibition at 20 µM is -20.7 ± 14.1% in experiment [1], -20.4 ± 13.7% in experiment [2] and -8 ± 4.3% in experiment [3]. Also, the inhibition at 200 µM in experiment [1] was -23.1 ± 1.4%; in experiment [2] it was -18.8 ± 1.3%; in experiment [3], -8.4 ± 3.1%.
Consider `CO[C@H]1/C=C/O[C@@]2(C)Oc3c(C)c(O)c4c(O)c(c(/C=N/N5CCN(C)CC5)c(O)c4c3C2=O)NC(=O)/C(C)=C\C=C\[C@H](C)[C@H](O)[C@@H](C)[C@@H](O)[C@@H](C)[C@H](OC(C)=O)[C@@H]1C` [Rifampicin], for which the inhibition at 20 µM was -8.1 ± 11.5% in experiment [1], -5.6 ± 7.8% in experiment [2] and -5.5 ± 4.2% in experiment [3].
For the molecule `CCCCNc1cc(C(=O)O)cc(S(N)(=O)=O)c1Oc1ccccc1` [Bumetanide], the figures for the inhibition at 20 µM in experiment [1], in experiment [2] and in experiment [3] were 9 ± 4%, 8.9 ± 4.1% and -2.8 ± 6.2%, respectively. Also, the inhibition at 200 µM in experiment [1] is -10.1 ± 1.7%; in experiment [2], -8.6 ± 1.9%; in experiment [3], -9.7 ± 5.6%.
